Assay results taken from PMC10282898 (Organic & Biomolecular Chemistry, 2023).

Legend:
A3 enzymes = settings: cited from earlier work
hCDA = hCDA (Homo sapiens, UniProt P32320); test: Quantitative evaluation of hCDA inhibitors; format: biochemical
Chain of hCDA (P32320 whole entry): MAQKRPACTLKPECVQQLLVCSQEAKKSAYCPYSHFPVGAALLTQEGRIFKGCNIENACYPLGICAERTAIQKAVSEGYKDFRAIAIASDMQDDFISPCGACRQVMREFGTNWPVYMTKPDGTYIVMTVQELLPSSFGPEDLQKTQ

Row | Ki (hCDA; hCDA 27 nM, dC substrate, pH 7.4, 25 °C, competitive inhibition assumed) [nM] | Km/Ki (hCDA; hCDA, Km of dC over Ki of inhibitor) | Structure (SMILES) | inhibition of A3 enzymes by free nucleosides (A3 enzymes)
1 | – | – | O=C1NC(O)CCN1[C@@H]1O[C@H](CO)[C@@H](O)[C@H]1O (stereo partly drawn) [THU, tetrahydrouridine] | did not inhibit
2 | 430 ± 80 | 512 | O=C1NCC=CCN1[C@H]1C[C@H](O)[C@@H](CO)O1 [dDiAzep, 8, 1,3-diazepin-2-one 2′-deoxyriboside] | –
